According to patent publication US8134000B2, “Imidazolyl pyrimidine inhibitor compounds” (Gilead Sciences, Inc., priority 2008, dated 2012):

How the values were obtained:
HDAC 1 = HDAC 1 (Homo sapiens, UniProt Q13547); assay: HDAC 1 inhibition assay with about 3 hours preincubation of enzyme and compound; assay type: biochemical; settings: read-out: HDAC 1 inhibitory activity (IC50 [μM]) (3-hour preincubation)
Method: The second assay is similar to the first assay described above, except that preincubation is carried out for about 3 hours after the enzyme is introduced. The test compound was suspended in, and titrated in DMSO. It was then spotted into a 384-well test plate. The enzyme, HDAC 1, was diluted in the same assay buffer as used in the previous assay and added to the pre-spotted compound. The enzyme/compound mix was incubated at room temperature for about 3 hours. The peptide substrate containing a fluorophore/quencher pair was diluted in the assay buffer and added to the compound/enzyme mix initiating the reaction. The reaction incubated at room temperature for 45 minutes. A concentrated developer solution was diluted in the assay buffer, and added to the reaction. The reaction was incubated at room temperature for about 15 minutes and relative fluorescence was read on an instrument reader.

CDK2 = CDK2 (Homo sapiens, UniProt P24941); assay: CDK2 inhibition (IC50); assay type: biochemical

HDAC 1, sequence (Q13547 whole entry, species assumed): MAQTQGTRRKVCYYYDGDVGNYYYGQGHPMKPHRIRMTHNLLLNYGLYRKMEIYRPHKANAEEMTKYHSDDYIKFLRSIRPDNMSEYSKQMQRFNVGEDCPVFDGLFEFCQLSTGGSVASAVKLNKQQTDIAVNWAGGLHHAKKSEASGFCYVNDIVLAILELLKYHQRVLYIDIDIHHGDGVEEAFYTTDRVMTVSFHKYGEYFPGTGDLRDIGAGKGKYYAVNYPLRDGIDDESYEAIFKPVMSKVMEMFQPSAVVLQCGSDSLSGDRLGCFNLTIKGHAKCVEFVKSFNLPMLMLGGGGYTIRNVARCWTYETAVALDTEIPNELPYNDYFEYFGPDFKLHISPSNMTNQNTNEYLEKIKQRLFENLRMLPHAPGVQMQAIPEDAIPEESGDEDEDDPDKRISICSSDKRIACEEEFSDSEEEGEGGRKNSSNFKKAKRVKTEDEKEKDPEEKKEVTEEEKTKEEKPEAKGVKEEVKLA

SMILES | IC50 (HDAC 1) | IC50 (CDK2)
Cc1ncc(-c2ccnc(Nc3ncc(C(=O)Nc4cc(-c5cccs5)ccc4N)s3)n2)n1C(C)C [Example 16, N-(2-amino-5-(thiophen-2-yl)phenyl)-2-(4-(1-isopropyl-2-methylimidazol-5-yl)pyrimidin-2-ylamino)thiazole-5-carboxamide] | 0.032 µM | 2.15 µM
Cc1ncc(-c2ccnc(Nc3ncc(C(=O)Nc4cc(-c5ccc(F)cc5)ccc4N)s3)n2)n1C(C)C [Example 15, N-(4-amino-4′-fluorobiphenyl-3-yl)-2-(4-(1-isopropyl-2-methylimidazol-5-yl)pyrimidin-2-ylamino)thiazole-5-carboxamide] | 0.049 µM | 1.04 µM
Cc1ncc(-c2ncnc(Nc3ccc(C(=O)Nc4ccccc4N)cc3)n2)n1C(C)C [Example 12, N-(2-aminophenyl)-4-(4-(1-isopropyl-2-methylimidazol-5-yl)-1,3,5-triazin-2ylamino)benzamide] | 0.153 µM | 0.34 µM
Cc1ncc(-c2cnnc(Nc3ccc(C(=O)Nc4ccccc4N)cc3)n2)n1C(C)C [Example 5, N-(2-aminophenyl)-4-(5-(1-isopropyl-2-methylimidazol-5-yl)-1,2,4-triazin-3-ylamino)benzamide] | 0.423 µM | > 40 µM
Cc1ncc(-c2ccnc(Nc3ccc(C(=O)Nc4cc(-c5ccc(F)cc5)ccc4N)cc3)n2)n1C(C)C [Example 9, N-(4-amino-4′-fluorobiphenyl-3-yl)-4-(4-(1-isopropyl-2-methylimidazol-5-yl)pyrimidin-2-ylamino)benzamide] | 0.04 µM | 0.027 µM
Cc1ncc(-c2ccnc(Nc3ccc(C(=O)Nc4cc(-c5cccs5)ccc4N)s3)n2)n1C(C)C [Example 10, N-(2-amino-5-(thiophen-2-yl)phenyl)-5-(4-(1-isopropyl-2-methylimidazol-5-yl)pyrimidin-2-ylamino)thiophene-2-carboxamide] | 0.034 µM | 0.026 µM
Cc1ncc(-c2ccnc(Nc3ccc(C(=O)Nc4cc(-c5cccs5)ccc4N)cc3)n2)n1C(C)C [Example 3, N-(2-amino-5-thiophen-2-yl-phenyl)-4-[4-(1-isopropyl-2-methylimidazol-5-yl)-pyrimidin-2-ylamino]-benzamide] | 0.019 µM | 0.04 µM

Now from value to compound:

IC50 (HDAC 1) | IC50 (CDK2) | SMILES
0.037 µM | 0.025 µM | Cc1ncc(-c2nc(Nc3ccc(C(=O)Nc4cc(-c5cccs5)ccc4N)s3)ncc2F)n1C(C)C [Example 17, N-(2-amino-5-(thiophen-2-yl)phenyl)-5-(5-fluoro-4-(1-isopropyl-2-methylimidazol-5-yl)pyrimidin-2-ylamino)thiophene-2-carboxamide]
4.37 µM | 0.012 µM | Cc1ncc(-c2ccnc(Nc3ccc(C(=O)Nc4ccccc4N)s3)n2)n1C(C)C [Example 11, N-(2-aminophenyl)-5-(4-(1-isopropyl-2-methylimidazol-5-yl)pyrimidin-2-ylamino)thiophene-2-carboxamide]
0.054 µM | 0.065 µM | Cc1ncc(-c2ccnc(Nc3ccc(C(=O)Nc4cc(-c5ccc(F)cc5)ccc4N)s3)n2)n1C(C)C [Example 13, N-(4-amino-4′-fluorobiphenyl-3-yl)-5-(4-(1-isopropyl-2-methylimidazol-5-yl)pyrimidin-2-ylamino)thiophene-2-carboxamide]
0.028 µM | 0.99 µM | Cc1cc(C(=O)Nc2cc(-c3ccc(F)cc3)ccc2N)sc1Nc1nccc(-c2cnc(C)n2C(C)C)n1 [Example 14, N-(4-amino-4′-fluorobiphenyl-3-yl)-5-(4-(1-isopropyl-2-methylimidazol-5-yl)pyrimidin-2-ylamino)-4-methylthiophene-2-carboxamide]
0.03 µM | > 40 µM | Cc1ncc(-c2cnnc(Nc3ccc(C(=O)Nc4cc(-c5cccs5)ccc4N)cc3)n2)n1C(C)C [Example 7, N-(2-amino-5-(thiophen-2-yl)phenyl)-4-(5-(1-isopropyl-2-methylimidazol-5-yl)-1,2,4-triazin-3-ylamino)benzamide]
> 10 µM | 0.01 µM | Cc1ncc(-c2ccnc(Nc3ccc(C(=O)Nc4cc(C(F)(F)F)ccc4N)cc3)n2)n1C(C)C [Example 6, N-(2-amino-5-(trifluoromethyl)phenyl)-4-(4-(1-isopropyl-2-methylimidazol-5-yl)pyrimidin-2-ylamino)benzamide]
0.656 µM | 0.002 µM | Cc1ncc(-c2ccnc(Nc3ccc(C(=O)NO)s3)n2)n1C(C)C [Example 8, N-hydroxy-5-(4-(1-isopropyl-2-methylimidazol-5-yl)pyrimidin-2-ylamino)thiophene-2-carboxamide]
0.241 µM | 0.01 µM | Cc1ncc(-c2ccnc(Nc3ccc(C(=O)NO)cc3)n2)n1C(C)C [Example 2, N-hydroxy-4-[4-(1-isopropyl-2-methylimidazol-5-yl)-pyrimidin-2-ylamino]-benzamide]
0.273 µM | 0.03 µM | Cc1ncc(-c2ccnc(Nc3ccc(C(=O)Nc4ccccc4N)cc3)n2)n1C(C)C [Example 1, N-(2-amino-phenyl)-4-[4-(1-isopropyl-2-methylimidazol-5-yl)-pyrimidin-2-ylamino]-benzamide]
0.41 µM | 2.1 µM | Cc1ncc(-c2ccnc(Nc3ncc(C(=O)Nc4ccccc4N)s3)n2)n1C(C)C [Example 18, N-(2-aminophenyl)-2-(4-(1-isopropyl-2-methylimidazol-5-yl)pyrimidin-2-ylamino)thiazole-5-carboxamide]
0.809 µM | 0.02 µM | Cc1ncc(-c2ccnc(Nc3ccc(C(=O)Nc4cc(F)ccc4N)cc3)n2)n1C(C)C [Example 4, N-(2-amino-5-fluoro-phenyl)-4-[4-(1-isopropyl-2-methylimidazol-5-yl)-pyrimidin-2-ylamino]-benzamide]
